From ChEMBL document CHEMBL5230123, “A comprehensive review of monoamine oxidase inhibitors as Anti-Alzheimer's disease agents: A review” (Eur J Med Chem, 2020)

Columns and labels:
[1] = molecular target: T1, Amine oxidase [flavin-containing] B (Rattus norvegicus, UniProt P19643); experiment: Inhibition of MAO-B expressed in Wistar rat liver preincubated for 30 mins followed by 4-(trifluoromethyl) benzylamine addition and measured after 90 mins by microplate reader analysis; type: tissue-based
T1 sequence (P19643 whole entry): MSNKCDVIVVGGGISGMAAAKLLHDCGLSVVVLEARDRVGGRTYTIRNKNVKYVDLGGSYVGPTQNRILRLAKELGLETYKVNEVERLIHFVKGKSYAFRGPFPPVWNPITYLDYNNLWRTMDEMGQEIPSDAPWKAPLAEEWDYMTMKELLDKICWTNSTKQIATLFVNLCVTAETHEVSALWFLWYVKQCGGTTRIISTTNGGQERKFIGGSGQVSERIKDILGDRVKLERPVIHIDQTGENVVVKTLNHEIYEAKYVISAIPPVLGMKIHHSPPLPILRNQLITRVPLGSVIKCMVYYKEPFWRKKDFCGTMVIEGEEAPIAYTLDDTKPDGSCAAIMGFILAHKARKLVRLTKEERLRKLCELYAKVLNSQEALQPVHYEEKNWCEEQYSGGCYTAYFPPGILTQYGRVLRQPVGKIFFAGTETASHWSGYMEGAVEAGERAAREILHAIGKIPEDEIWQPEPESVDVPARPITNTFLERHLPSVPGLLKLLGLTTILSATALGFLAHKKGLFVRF

Acetylcholinesterase [2] = molecular target: T2, Acetylcholinesterase (Electrophorus electricus, UniProt O42275); experiment: Inhibition of electric eel AChE using acetylthiocholine iodide as substrate preincubated for 5 mins followed by substrate addition and measured for 20 mins by DTNB reagent based Ellman's method
T2 sequence (O42275 whole entry): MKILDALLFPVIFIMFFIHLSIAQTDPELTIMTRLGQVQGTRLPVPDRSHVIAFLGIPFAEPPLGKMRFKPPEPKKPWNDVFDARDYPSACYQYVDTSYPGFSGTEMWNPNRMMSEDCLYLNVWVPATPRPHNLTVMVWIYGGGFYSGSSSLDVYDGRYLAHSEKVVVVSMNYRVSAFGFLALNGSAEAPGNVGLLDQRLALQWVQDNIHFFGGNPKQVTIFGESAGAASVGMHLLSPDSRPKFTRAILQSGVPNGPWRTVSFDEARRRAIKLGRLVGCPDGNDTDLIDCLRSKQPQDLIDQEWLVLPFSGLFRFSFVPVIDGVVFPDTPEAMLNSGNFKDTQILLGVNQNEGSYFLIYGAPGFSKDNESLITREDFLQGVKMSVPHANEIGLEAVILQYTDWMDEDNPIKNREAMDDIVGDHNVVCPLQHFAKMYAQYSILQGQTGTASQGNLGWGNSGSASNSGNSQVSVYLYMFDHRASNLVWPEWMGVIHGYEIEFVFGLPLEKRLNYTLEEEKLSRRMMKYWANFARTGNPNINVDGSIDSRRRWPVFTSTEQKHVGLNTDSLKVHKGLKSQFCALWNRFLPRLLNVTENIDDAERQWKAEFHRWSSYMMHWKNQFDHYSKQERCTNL

Cholinesterase [3] = molecular target: Cholinesterase (Equus caballus, UniProt P81908); experiment: Inhibition of horse serum BuChE using butyrylthiocholine iodide as substrate preincubated for 5 mins followed by substrate addition and measured for 20 mins by DTNB reagent based Ellman's method
Chain of Cholinesterase (Equus caballus, UniProt P81908) (P81908 whole entry): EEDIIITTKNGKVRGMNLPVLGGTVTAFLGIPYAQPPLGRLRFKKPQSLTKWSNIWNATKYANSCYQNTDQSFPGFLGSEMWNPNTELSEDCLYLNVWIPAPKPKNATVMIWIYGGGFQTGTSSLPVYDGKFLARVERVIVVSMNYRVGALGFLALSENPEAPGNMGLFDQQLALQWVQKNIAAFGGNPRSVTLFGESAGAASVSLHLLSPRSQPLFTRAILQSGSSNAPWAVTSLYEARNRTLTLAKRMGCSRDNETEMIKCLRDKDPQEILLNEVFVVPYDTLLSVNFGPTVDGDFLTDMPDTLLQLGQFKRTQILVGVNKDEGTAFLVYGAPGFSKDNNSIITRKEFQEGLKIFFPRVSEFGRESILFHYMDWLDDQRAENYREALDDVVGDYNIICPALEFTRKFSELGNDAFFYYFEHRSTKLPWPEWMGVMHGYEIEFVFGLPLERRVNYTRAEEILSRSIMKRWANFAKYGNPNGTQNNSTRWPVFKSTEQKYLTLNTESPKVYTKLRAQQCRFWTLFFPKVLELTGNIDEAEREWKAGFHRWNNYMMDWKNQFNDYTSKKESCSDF

[4] = molecular target: T3, Amine oxidase [flavin-containing] B (Homo sapiens, UniProt P27338); experiment: Inhibition of MAO-B (unknown origin) using tyramine hydrochloride as substrate incubated for 30 mins followed by substrate addition and measured after 5 mins by spectrophotometric assay
T3 sequence (P27338 whole entry): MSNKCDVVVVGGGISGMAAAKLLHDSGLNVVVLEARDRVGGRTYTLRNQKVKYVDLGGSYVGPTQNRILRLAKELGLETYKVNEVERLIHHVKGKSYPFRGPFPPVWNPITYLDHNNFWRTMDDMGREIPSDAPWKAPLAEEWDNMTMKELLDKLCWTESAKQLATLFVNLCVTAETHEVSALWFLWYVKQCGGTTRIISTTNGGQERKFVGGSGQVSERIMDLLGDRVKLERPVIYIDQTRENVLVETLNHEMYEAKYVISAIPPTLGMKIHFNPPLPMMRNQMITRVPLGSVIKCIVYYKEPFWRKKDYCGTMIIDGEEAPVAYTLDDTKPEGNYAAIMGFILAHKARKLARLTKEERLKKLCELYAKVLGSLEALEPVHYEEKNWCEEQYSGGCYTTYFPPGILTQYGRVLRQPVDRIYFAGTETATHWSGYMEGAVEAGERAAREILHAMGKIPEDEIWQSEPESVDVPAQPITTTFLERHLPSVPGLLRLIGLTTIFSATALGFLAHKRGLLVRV

[5] = molecular target: T3, Amine oxidase [flavin-containing] B; experiment: Inhibition of MAO-B (unknown origin) using as tyramine as substrate by Ampliflu red reagent based fluorometric method
[6] = molecular target: T3, Amine oxidase [flavin-containing] B; experiment: Inhibition of human MAO-B using tyramine as substrate by amplex red assay
Acetylcholinesterase [7] = molecular target: Acetylcholinesterase (Homo sapiens, UniProt P22303); experiment: Inhibition of recombinant human AChE using acetylcholine as substrate preincubated for 15 mins followed by substrate addition and measured after 30 mins by Amplex Red reagent based fluorescence assay
Chain of Acetylcholinesterase (Homo sapiens, UniProt P22303) (P22303 whole entry): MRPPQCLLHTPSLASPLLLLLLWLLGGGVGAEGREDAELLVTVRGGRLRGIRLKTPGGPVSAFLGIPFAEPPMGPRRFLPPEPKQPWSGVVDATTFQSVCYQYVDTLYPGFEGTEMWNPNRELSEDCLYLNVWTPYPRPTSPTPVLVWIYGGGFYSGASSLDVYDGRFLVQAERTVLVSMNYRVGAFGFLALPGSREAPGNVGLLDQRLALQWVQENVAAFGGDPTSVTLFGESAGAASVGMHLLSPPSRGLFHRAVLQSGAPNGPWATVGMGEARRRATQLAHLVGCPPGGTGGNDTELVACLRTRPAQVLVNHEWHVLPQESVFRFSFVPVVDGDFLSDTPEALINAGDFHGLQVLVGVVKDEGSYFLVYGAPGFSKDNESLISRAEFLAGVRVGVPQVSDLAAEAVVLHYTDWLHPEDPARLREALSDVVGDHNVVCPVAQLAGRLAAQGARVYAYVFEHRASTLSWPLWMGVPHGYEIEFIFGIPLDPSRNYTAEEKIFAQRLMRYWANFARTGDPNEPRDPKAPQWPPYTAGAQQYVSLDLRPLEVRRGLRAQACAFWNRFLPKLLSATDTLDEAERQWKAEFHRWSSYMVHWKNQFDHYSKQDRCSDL

Cholinesterase [8] = molecular target: Cholinesterase (Homo sapiens, UniProt P06276); experiment: Inhibition of human BuChE using butyrylthiocholine iodide as substrate preincubated for 30 mins followed by substrate addition and measured after 15 mins by Ellman's method
Chain of Cholinesterase (Homo sapiens, UniProt P06276) (P06276 whole entry): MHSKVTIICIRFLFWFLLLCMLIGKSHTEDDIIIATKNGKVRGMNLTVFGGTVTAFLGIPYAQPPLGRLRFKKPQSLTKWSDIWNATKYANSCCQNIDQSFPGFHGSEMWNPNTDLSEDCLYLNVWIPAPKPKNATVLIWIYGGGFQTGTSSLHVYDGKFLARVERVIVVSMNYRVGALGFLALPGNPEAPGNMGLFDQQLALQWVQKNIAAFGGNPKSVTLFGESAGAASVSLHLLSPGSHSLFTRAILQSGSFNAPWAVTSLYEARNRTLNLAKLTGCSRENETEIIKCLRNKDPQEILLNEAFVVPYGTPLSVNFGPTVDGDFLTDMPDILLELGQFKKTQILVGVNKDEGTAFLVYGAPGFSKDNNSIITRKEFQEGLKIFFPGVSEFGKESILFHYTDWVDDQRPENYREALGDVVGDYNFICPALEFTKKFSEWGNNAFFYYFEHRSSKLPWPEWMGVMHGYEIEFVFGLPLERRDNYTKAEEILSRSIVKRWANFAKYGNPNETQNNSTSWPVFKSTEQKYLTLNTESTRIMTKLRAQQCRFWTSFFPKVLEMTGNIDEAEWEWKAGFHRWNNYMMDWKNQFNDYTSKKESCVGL

[9] = molecular target: T4, Amine oxidase [flavin-containing] A (Homo sapiens, UniProt P21397); experiment: Inhibition of human MAO-A using p-tyramine as substrate preincubated for 15 mins followed by substrate addition and measured after 30 mins by Ample red assay
T4 sequence (P21397 whole entry): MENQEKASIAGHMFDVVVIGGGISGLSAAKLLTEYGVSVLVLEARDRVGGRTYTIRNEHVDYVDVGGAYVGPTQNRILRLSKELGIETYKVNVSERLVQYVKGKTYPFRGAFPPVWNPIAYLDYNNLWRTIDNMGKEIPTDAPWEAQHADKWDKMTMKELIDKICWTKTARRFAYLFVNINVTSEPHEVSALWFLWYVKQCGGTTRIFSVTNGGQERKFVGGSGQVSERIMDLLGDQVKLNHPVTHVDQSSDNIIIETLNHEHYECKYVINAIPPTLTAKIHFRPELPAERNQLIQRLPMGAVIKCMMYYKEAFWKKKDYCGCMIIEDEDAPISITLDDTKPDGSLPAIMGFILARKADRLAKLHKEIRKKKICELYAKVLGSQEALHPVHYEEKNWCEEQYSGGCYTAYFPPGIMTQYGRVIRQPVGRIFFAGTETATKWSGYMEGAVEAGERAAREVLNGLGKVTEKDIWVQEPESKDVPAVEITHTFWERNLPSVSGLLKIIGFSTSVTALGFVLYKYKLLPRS

[10] = molecular target: T4, Amine oxidase [flavin-containing] A; experiment: Inhibition of MAO-A (unknown origin) using kynuramine as substrate by spectrophotometric assay
[11] = molecular target: T3, Amine oxidase [flavin-containing] B; experiment: Inhibition of MAO-B (unknown origin) using benzylamine as substrate by spectrophotometric assay
[12] = molecular target: T3, Amine oxidase [flavin-containing] B; experiment: Inhibition of recombinant human MAO-B expressed in baculovirus-infected BTI insect cells using p-tyramine as substrate incubated for 45 mins by fluorescence assay
[13] = molecular target: T1, Amine oxidase [flavin-containing] B; experiment: Inhibition of rat brain mitochondria MAO-B using p-tyramine as substrate incubated for 15 mins followed by substrate addition and measured for 15 by microplate fluorescence reader analysis
[14] = molecular target: Acetylcholinesterase (Electrophorus electricus) (UniProt O42275); experiment: Inhibition of electric eel AChE using acetylthiocholine iodide as substrate at 1 uM preincubated for 5 mins followed by substrate addition and measured for 20 mins by DTNB reagent based Ellman's method
Chain of Acetylcholinesterase (Electrophorus electricus) (O42275 24-633 limits assumed): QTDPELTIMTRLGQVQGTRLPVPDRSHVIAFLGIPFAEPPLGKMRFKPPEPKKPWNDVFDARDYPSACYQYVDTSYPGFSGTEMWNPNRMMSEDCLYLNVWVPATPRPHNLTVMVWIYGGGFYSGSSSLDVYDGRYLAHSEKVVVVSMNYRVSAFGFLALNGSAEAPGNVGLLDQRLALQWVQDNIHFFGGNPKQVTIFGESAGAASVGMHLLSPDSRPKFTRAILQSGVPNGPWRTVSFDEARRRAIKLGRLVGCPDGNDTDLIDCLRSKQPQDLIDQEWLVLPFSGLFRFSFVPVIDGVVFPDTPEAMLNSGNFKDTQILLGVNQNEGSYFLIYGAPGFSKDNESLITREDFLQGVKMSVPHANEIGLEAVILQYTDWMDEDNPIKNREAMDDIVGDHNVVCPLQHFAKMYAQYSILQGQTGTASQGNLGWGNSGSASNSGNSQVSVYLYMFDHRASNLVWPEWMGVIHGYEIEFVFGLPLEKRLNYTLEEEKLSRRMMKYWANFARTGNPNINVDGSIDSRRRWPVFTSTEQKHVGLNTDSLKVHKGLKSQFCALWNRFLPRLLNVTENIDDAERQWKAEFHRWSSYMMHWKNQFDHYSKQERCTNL

[15] = molecular target: T4, Amine oxidase [flavin-containing] A; experiment: Inhibition of recombinant human MAO-A using kynuramine as substrate incubated for 10 mins followed by substrate addition and measured for 20 mins by Fluorescence microplate reader assay
[16] = molecular target: T1, Amine oxidase [flavin-containing] B; experiment: Inhibition of rat brain mitochondria MAO-B using benzylamine as substrate incubated for 30 mins by microplate reader assay
Acetylcholinesterase [17] = molecular target: T2, Acetylcholinesterase; experiment: Inhibition of electric eel AChE using acetylthiocholine iodide as substrate incubated for 6 mins followed by substrate addition by DTNB reagent based Ellman's method
[18] = molecular target: T3, Amine oxidase [flavin-containing] B; experiment: Inhibition of recombinant human MAO-B using p-tyramine as substrate incubated for 15 mins followed by substrate addition and measured upto 20 mins by Amplex Red assay
[19] = molecular target: T3, Amine oxidase [flavin-containing] B; experiment: Inhibition of recombinant human MAO-B using kynuramine as substrate incubated for 20 min by fluorescent spectrophotometric assay
Homo sapiens = species: Homo sapiens; experiment: Selectivity index, ratio of IC50 for inhibition of recombinant human MAO-B to IC50 for inhibition of recombinant human MAO-A
[20] = molecular target: T4, Amine oxidase [flavin-containing] A; experiment: Inhibition of recombinant human MAO-A expressed in insect cells using kynuramine as substrate incubated for 20 mins by Amplex Red reagent based fluorometric method
[21] = molecular target: T3, Amine oxidase [flavin-containing] B; experiment: Inhibition of recombinant human MAO-B expressed in insect cells using kynuramine as substrate incubated for 20 mins by Amplex Red reagent based fluorometric method

## O=c1oc2c(O)c(O)ccc2cc1-c1ccc(O)c(O)c1
[1]
  IC50: 27000 nM
Acetylcholinesterase [2]
  IC50: 3040 nM
Cholinesterase [3]
  IC50: 8370 nM

## CN1CCN(c2ccc(/C=N/Nc3ccccc3)cc2)CC1
[4]
  IC50: 28 nM

## Cc1c(/N=C/c2ccc(O)cc2)c(=O)n(-c2ccccc2)n1C
[5]
  IC50: 114 nM

## Cc1ccc(C2=NO[C@H](c3ccc(Cl)c(Cl)c3)C2)cc1
[6]
  IC50: 11000 nM

## C#CCOc1ccc(-c2cc(-c3ccc(OCCN4CCOCC4)cc3)nc(N)n2)cc1
Acetylcholinesterase [7]
  IC50: 30.5 nM
Cholinesterase [8]
  IC50: 666 nM
[9]
  IC50: 18.3 nM

## O=C(/C=C/c1cccc(F)c1)c1ccc(N2CCOCC2)cc1
[10]
  IC50: 45000 nM
[11]
  IC50: 87 nM

## Cn1cc(/N=C/c2ccc([N+](=O)[O-])cc2)c(=O)n1-c1ccccc1
[5]
  IC50: 49 nM

## Cn1ccc2cc(C(=S)Nc3ccc(F)cc3)ccc21
[12]
  IC50: 28 nM

## C/C(=N\NC(=O)C1CC(c2ccccc2)=NO1)c1ccc(C)cc1 (centres undefined)
[13]
  IC50: 5.1 nM

## O=c1ccc2ccc(OCCN3CCCCC3)cc2o1
[14]
  inhibition: 30.9%

## Cc1ccc(C2=NOC(c3ccc(Cl)c(Cl)c3)C2)cc1 (centres undefined)
[6]
  IC50: 12 nM

## O=c1c(O)c(-c2cc(O)c(O)c(O)c2)oc2cc(O)cc(O)c12 [MYRICETIN]
[15]
  IC50: 9930 nM

## O=C1Nc2ccc(Cl)cc2/C1=N\NC(=O)c1ccc2c(c1)OCO2
[16]
  IC50: 34 nM

## Cc1c(Cl)c(=O)oc2cc(OCCCCSC(=S)N3CCCCC3C)ccc12 (centres undefined)
Acetylcholinesterase [17]
  IC50: 6.8 nM
[18]
  IC50: 8.9 nM

## O=c1cc(OCCN2CCOCC2)c2ccccc2o1
[19]
  IC50: 372 nM

## CCCCOc1ccc(C2=NN(C(N)=S)C(c3ccccc3)C2)cc1 (centres undefined)
Homo sapiens
  Ratio IC50: 9.55
[20]
  IC50: 3630 nM
[21]
  IC50: 380 nM
